{"source": "PubChem BioAssay AID1963444", "about": "(Molecular Pharmacology Branch, DTP, NCI, 2024)", "test_system": "HSSY-II complex spheroid growth, percent test/control", "experiment": "Anticancer human tumor HSSY-II cell line growth inhibition [Asc];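 as to all read-outs here: spheroids exposed to drug for 7 days before reading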", "conditions": "for IC50: curve of first compound; for viability, T/C: stronger effect = lower value", "how_it_was_run": "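Tumor cells were grown as multicellular spheroids with stromal HUVEC and mesenchymal stem cells and treated singly or in combination. Concentrations fell in half-log steps from the clinical Cmax, or from 10 microM where none was known.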"}
{"smiles": "NC(=O)C(=Cn1cnc(-c2cc(C(F)(F)F)cc(C(F)(F)F)c2)n1)c1cncnc1", "note": "+ CNC(C)C(=O)NC1CN(S(=O)(=O)c2cccc(S(=O)(=O)N3CCC4CCC(C(=O)NC(c5ccccc5)c5ccccc5)N4C(=O)C(NC(=O)C(C)NC)C3)c2)CCC2CCC(C(=O)NC(c3ccccc3)c3ccccc3)N2C1=O", "values": [{"measurement": "IC50", "setting": "second compound 0.01 µM", "result": 10.6, "unit": "nM"}, {"measurement": "IC50", "setting": "second compound 0.0316 µM", "result": 14.3, "unit": "nM"}, {"measurement": "IC50", "setting": "second compound 0.1 µM", "result": 12.9, "unit": "nM"}, {"measurement": "IC50", "setting": "second compound 0.316 µM", "result": 11.1, "unit": "nM"}, {"measurement": "IC50", "setting": "second compound 1 µM", "result": 12.7, "unit": "nM"}, {"measurement": "viability, T/C", "setting": "second compound 0.01 µM, first compound 0.000949 µM", "result": 93.6, "unit": "%"}, {"measurement": "viability, T/C", "setting": "second compound 0.01 µM, first compound 0.003 µM", "result": 78.1, "unit": "%"}, {"measurement": "viability, T/C", "setting": "second compound 0.01 µM, first compound 0.00949 µM", "result": 53.5, "unit": "%"}, {"measurement": "viability, T/C", "setting": "second compound 0.01 µM, first compound 0.03 µM", "result": 23.7, "unit": "%"}, {"measurement": "viability, T/C", "setting": "second compound 0.01 µM, first compound 0.0949 µM", "result": 11.5, "unit": "%"}, {"measurement": "viability, T/C", "setting": "second compound 0.01 µM, first compound 0.3 µM", "result": 0.44, "unit": "%"}, {"measurement": "viability, T/C", "setting": "second compound 0.0316 µM, first compound 0.000949 µM", "result": 77.6, "unit": "%"}, {"measurement": "viability, T/C", "setting": "second compound 0.0316 µM, first compound 0.003 µM", "result": 79.4, "unit": "%"}, {"measurement": "viability, T/C", "setting": "second compound 0.0316 µM, first compound 0.00949 µM", "result": 57.8, "unit": "%"}, {"measurement": "viability, T/C", "setting": "second compound 0.0316 µM, first compound 0.03 µM", "result": 32.5, "unit": "%"}, {"measurement": "viability, T/C", "setting": "second compound 0.0316 µM, first compound 0.0949 µM", "result": 9.75, "unit": "%"}, {"measurement": "viability, T/C", "setting": "second compound 0.0316 µM, first compound 0.3 µM", "result": 0.64, "unit": "%"}, {"measurement": "viability, T/C", "setting": "second compound 0.1 µM, first compound 0.000949 µM", "result": 76.4, "unit": "%"}, {"measurement": "viability, T/C", "setting": "second compound 0.1 µM, first compound 0.003 µM", "result": 68.2, "unit": "%"}, {"measurement": "viability, T/C", "setting": "second compound 0.1 µM, first compound 0.00949 µM", "result": 58.9, "unit": "%"}, {"measurement": "viability, T/C", "setting": "second compound 0.1 µM, first compound 0.03 µM", "result": 28.8, "unit": "%"}, {"measurement": "viability, T/C", "setting": "second compound 0.1 µM, first compound 0.0949 µM", "result": 7.63, "unit": "%"}, {"measurement": "viability, T/C", "setting": "second compound 0.1 µM, first compound 0.3 µM", "result": 0.48, "unit": "%"}, {"measurement": "viability, T/C", "setting": "second compound 0.316 µM, first compound 0.000949 µM", "result": 91.1, "unit": "%"}, {"measurement": "viability, T/C", "setting": "second compound 0.316 µM, first compound 0.003 µM", "result": 73.5, "unit": "%"}, {"measurement": "viability, T/C", "setting": "second compound 0.316 µM, first compound 0.00949 µM", "result": 55.1, "unit": "%"}, {"measurement": "viability, T/C", "setting": "second compound 0.316 µM, first compound 0.03 µM", "result": 29.3, "unit": "%"}, {"measurement": "viability, T/C", "setting": "second compound 0.316 µM, first compound 0.0949 µM", "result": 6.77, "unit": "%"}, {"measurement": "viability, T/C", "setting": "second compound 0.316 µM, first compound 0.3 µM", "result": 0.44, "unit": "%"}, {"measurement": "viability, T/C", "setting": "second compound 1 µM, first compound 0.000949 µM", "result": 88.1, "unit": "%"}, {"measurement": "viability, T/C", "setting": "second compound 1 µM, first compound 0.003 µM", "result": 79.8, "unit": "%"}, {"measurement": "viability, T/C", "setting": "second compound 1 µM, first compound 0.00949 µM", "result": 56.3, "unit": "%"}, {"measurement": "viability, T/C", "setting": "second compound 1 µM, first compound 0.03 µM", "result": 29.9, "unit": "%"}, {"measurement": "viability, T/C", "setting": "second compound 1 µM, first compound 0.0949 µM", "result": 5.98, "unit": "%"}, {"measurement": "viability, T/C", "setting": "second compound 1 µM, first compound 0.3 µM", "result": 0.56, "unit": "%"}]}
{"smiles": "NC1CCC(NC2CC2c2ccccc2)CC1", "note": "(stereo not given) + CNC(C)C(=O)NC1CN(S(=O)(=O)c2cccc(S(=O)(=O)N3CCC4CCC(C(=O)NC(c5ccccc5)c5ccccc5)N4C(=O)C(NC(=O)C(C)NC)C3)c2)CCC2CCC(C(=O)NC(c3ccccc3)c3ccccc3)N2C1=O", "values": [{"measurement": "IC50", "setting": "second compound 0.01 µM", "result": "> 100", "unit": "nM"}, {"measurement": "IC50", "setting": "second compound 0.0316 µM", "result": "< 0.316", "unit": "nM"}, {"measurement": "IC50", "setting": "second compound 0.1 µM", "result": 0.67, "unit": "nM"}, {"measurement": "IC50", "setting": "second compound 0.316 µM", "result": "< 0.316", "unit": "nM"}, {"measurement": "IC50", "setting": "second compound 1 µM", "result": "< 0.316", "unit": "nM"}, {"measurement": "viability, T/C", "setting": "second compound 0.01 µM, first compound 0.000316 µM", "result": 59.5, "unit": "%"}, {"measurement": "viability, T/C", "setting": "second compound 0.01 µM, first compound 0.001 µM", "result": 59.1, "unit": "%"}, {"measurement": "viability, T/C", "setting": "second compound 0.01 µM, first compound 0.00316 µM", "result": 48.6, "unit": "%"}, {"measurement": "viability, T/C", "setting": "second compound 0.01 µM, first compound 0.01 µM", "result": 54.9, "unit": "%"}, {"measurement": "viability, T/C", "setting": "second compound 0.01 µM, first compound 0.0316 µM", "result": 56.4, "unit": "%"}, {"measurement": "viability, T/C", "setting": "second compound 0.01 µM, first compound 0.1 µM", "result": 52.1, "unit": "%"}, {"measurement": "viability, T/C", "setting": "second compound 0.0316 µM, first compound 0.000316 µM", "result": 43.9, "unit": "%"}, {"measurement": "viability, T/C", "setting": "second compound 0.0316 µM, first compound 0.001 µM", "result": 43.3, "unit": "%"}, {"measurement": "viability, T/C", "setting": "second compound 0.0316 µM, first compound 0.00316 µM", "result": 46.4, "unit": "%"}, {"measurement": "viability, T/C", "setting": "second compound 0.0316 µM, first compound 0.01 µM", "result": 49.3, "unit": "%"}, {"measurement": "viability, T/C", "setting": "second compound 0.0316 µM, first compound 0.0316 µM", "result": 45.5, "unit": "%"}, {"measurement": "viability, T/C", "setting": "second compound 0.0316 µM, first compound 0.1 µM", "result": 48.7, "unit": "%"}, {"measurement": "viability, T/C", "setting": "second compound 0.1 µM, first compound 0.000316 µM", "result": 56.2, "unit": "%"}, {"measurement": "viability, T/C", "setting": "second compound 0.1 µM, first compound 0.001 µM", "result": 46.3, "unit": "%"}, {"measurement": "viability, T/C", "setting": "second compound 0.1 µM, first compound 0.00316 µM", "result": 48.4, "unit": "%"}, {"measurement": "viability, T/C", "setting": "second compound 0.1 µM, first compound 0.01 µM", "result": 49.2, "unit": "%"}, {"measurement": "viability, T/C", "setting": "second compound 0.1 µM, first compound 0.0316 µM", "result": 39, "unit": "%"}, {"measurement": "viability, T/C", "setting": "second compound 0.1 µM, first compound 0.1 µM", "result": 49.9, "unit": "%"}, {"measurement": "viability, T/C", "setting": "second compound 0.316 µM, first compound 0.000316 µM", "result": 51.2, "unit": "%"}, {"measurement": "viability, T/C", "setting": "second compound 0.316 µM, first compound 0.001 µM", "result": 44.2, "unit": "%"}, {"measurement": "viability, T/C", "setting": "second compound 0.316 µM, first compound 0.00316 µM", "result": 49.4, "unit": "%"}, {"measurement": "viability, T/C", "setting": "second compound 0.316 µM, first compound 0.01 µM", "result": 43.4, "unit": "%"}, {"measurement": "viability, T/C", "setting": "second compound 0.316 µM, first compound 0.0316 µM", "result": 47.1, "unit": "%"}, {"measurement": "viability, T/C", "setting": "second compound 0.316 µM, first compound 0.1 µM", "result": 47.6, "unit": "%"}, {"measurement": "viability, T/C", "setting": "second compound 1 µM, first compound 0.000316 µM", "result": 38.7, "unit": "%"}, {"measurement": "viability, T/C", "setting": "second compound 1 µM, first compound 0.001 µM", "result": 47.1, "unit": "%"}, {"measurement": "viability, T/C", "setting": "second compound 1 µM, first compound 0.00316 µM", "result": 51.8, "unit": "%"}, {"measurement": "viability, T/C", "setting": "second compound 1 µM, first compound 0.01 µM", "result": 41.2, "unit": "%"}, {"measurement": "viability, T/C", "setting": "second compound 1 µM, first compound 0.0316 µM", "result": 46.6, "unit": "%"}, {"measurement": "viability, T/C", "setting": "second compound 1 µM, first compound 0.1 µM", "result": 52.7, "unit": "%"}]}
